Results reported in US8785423B2, “Compositions and methods of inducing endoplasmic reticulum stress response for the treatment of cell proliferative diseases” (University of Maryland, Baltimore, priority 2008, dated 2014).

Experiments:
Format in all cases: cell-based
DU-145 cells = experiment: MTT cell viability assay, 96 hr exposure; conditions: DU-145, 96 hrs; for GI50: Homo sapiens
Experimental: (§1) All cell lines were obtained from American. Type Culture Collection (Rockville, Md.) and maintained in RPM 1640 media supplemented with 10% fetal bovine serum and 5% penicillin streptomycin solution. Cells were grown as a monolayer in a humidified incubator (5% CO2) at 37° C. To determine the effect of the various compounds on cell proliferation, cells were plated (2500 cells/well) in 96-well cell culture dishes (Corning, Inc. Corning, N.Y.). After a 24 hr attachment period, media was replaced with fresh media containing compounds (0.01 μM-100 μM) or vehicle (95% ethanol). The cells were then allowed to grow in the presence of the drugs for 96 hrs. After 96 hrs, relative cell viability was assessed using the MIT reagent (3-(4,5-dimethylthiazol-2-yl)-2,5-diphenyltetrazolium bromide) as is well-known in the art. […] Results were plotted using the average of each dose over all three experiments and fitted with a best-fit sigmoidal dose response variable slope curve using GraphPad Prism 4.01 (GraphPad Software, Inc.). For combination of VN/124-1 and Thapsigargin, cells were treated for 72 hrs and viability was assessed as described for single agents. Combination index (CI) was calculated as is well known in the art, and CI values less than 1 are considered synergistic.

LNCaP cells = experiment: MTT cell viability assay, 96 hr exposure; conditions: for GI50: Homo sapiens
Experimental: as §1

PC-3 cells [1] = experiment: MTT cell viability assay, 96 hr exposure; conditions: PC-3, 96 hrs; for GI50: Homo sapiens
Experimental: as §1

PC-3 cells [2] = experiment: Ca2+ transients in individual cells, Fluo-3AM; conditions: 20 μM; for transient rise in [Ca2+]i, mean peak ΔF/F0: Fluo-3AM
Experimental: (§2) PC-3 Cells were loaded with either fura-2 or fluo-3 indicator by incubation with 2 μM fura-2/AM or 2 μM fluo-3/AM in RPMI 1640 medium containing 10% fetal bovine serum for >60 min at room temperature. During experiments, the coverslips were mounted in a flow chamber and superfused with oxygenated Locke solution containing (in mM): 10 glucose, 136 NaCl, 5.6 KCl, 1.2 NaH2PO4 14.3 NaHCO3, 1.2 MgCl2, and 2.2 CaCl2, pH 7.4, at room temperature (22-24° C.).
For measurement of [Ca^2+]i in individual cells, PC-3 cells were incubated on coverslips with 20 μM VN/124-1 or vehicle for 24 hrs. Cells loaded with fura-2 were placed in a perfusion chamber mounted on an inverted microscope (TE200; Nikon, Tokyo, Japan) equipped with a UV-transmitting objective (SuperFluor, 40×, N.A. 1.4, Nikon). Pura-2 was alternately excited by 340 nm and 380 nm light from monochrometers (Deltascan Illumination System, Photonic Technology International (PTI), South Brunswick, N.J.) and fura-2 emission was passed through a 515 nm longpass tiller before detection by a cooled CCD camera (Retiga 2000R, Q-Imaging, Burnaby, Canada). For measurement of Cat^2+ transients in individual cells, coverslips with fluo-3 loaded cells were excited by the output of a 100 W mercury are lamp that passed through a 480 nm bandpass filter (30 nm bandwidth). Fluorescence emission was passed through a 515 nm longpass filter before capture by a cooled CCD camera (Retiga 2000R, Q-Imaging). Image acquisition was performed with QCapture Pro (Q-Imaging) and analysis was performed with ImageJ (U.S. National Institutes of Health Bethesda, Md. USA).
(§3) Fluo-3 Ca^2+ indicator measurements are reported as the fractional change in fluorescence intensity relative to baseline (ΔF/F0), which was determined as follows. Within a temporal sequence of fluorescence images, a region of interest (ROI) was drawn around each cell to be analyzed. The fluorescence signal from each cell was calculated as the pixel-averaged intensity within each ROI. […]

PC-3 cells [3] = experiment: Absolute [Ca2+]i in individual cells, Fura-2AM; conditions: 20 μM, 24 hrs, control cells about 42.05 nM
Experimental: as §2
For measurement of [Ca^2+]i in individual cells, PC-3 cells were incubated on coverslips with 20 μM VN/124-1 or vehicle for 24 hrs. Cells loaded with fura-2 were placed in a perfusion chamber mounted on an inverted microscope (TE200; Nikon, Tokyo, Japan) equipped with a UV-transmitting objective (SuperFluor, 40×, N.A. 1.4, Nikon). […] Fluorescence emission was passed through a 515 nm longpass filter before capture by a cooled CCD camera (Retiga 2000R, Q-Imaging). […]
as §3

PC-3 cells [4] = experiment: Cell cycle analysis by flow cytometry in synchronized cells; conditions: 20 μM
Experimental: Cells were synchronized in the G1/G0 phase by maintaining them in 0.2% FBS-containing media for 96 hrs. After starvation, media was replaced with normal growth media (10% FBS) containing vehicle (95% ethanol) or 20 μM VN/124-1 for 12, 18, and 24 hrs. At each timepoint, cells were pelleted and fixed in 70% ethanol at −20° C. for at least 24 hrs. Fixed cells were then incubated with 1 mL propidium iodide (PI) staining buffer (1 mg/ml PI, 0.1% Triton-X, and 10 μg/ml RNase A dissolved in PBS) for 1 hr at room temperature and DNA content was measured by flow cytometry analysis using a FACSort flow cytometer (Becton Dickinson, San Jose, Calif.). 15,000 events were analyzed for each sample and ModFit LT version 3.1 (Verity Software House Ind., ME) was used to analyze cell cycle distribution.

PC-3 cells [5] = experiment: Co-administration of VN/124-1 and thapsigargin, MTT cell viability, combination index; conditions: 96 hrs, CI less than 1 synergistic
Experimental: All cell lines were obtained from American. Type Culture Collection (Rockville, Md.) and maintained in RPM 1640 media supplemented with 10% fetal bovine serum and 5% penicillin streptomycin solution. Cells were grown as a monolayer in a humidified incubator (5% CO2) at 37° C. To determine the effect of the various compounds on cell proliferation, cells were plated (2500 cells/well) in 96-well cell culture dishes (Corning, Inc. Corning, N.Y.). After a 24 hr attachment period, media was replaced with fresh media containing compounds (0.01 μM-100 μM) or vehicle (95% ethanol). The cells were then allowed to grow in the presence of the drugs for 96 hrs. After 96 hrs, relative cell viability was assessed using the MIT reagent (3-(4,5-dimethylthiazol-2-yl)-2,5-diphenyltetrazolium bromide) as is well-known in the art. Experiments were carried out 3 times with 6 replicates per dose per experiment (n=18). Results were plotted using the average of each dose over all three experiments and fitted with a best-fit sigmoidal dose response variable slope curve using GraphPad Prism 4.01 (GraphPad Software, Inc.). […] Combination index (CI) was calculated as is well known in the art, and CI values less than 1 are considered synergistic.

PC-3 cells [6] = experiment: Real-time PCR (qRT-PCR) of stress response and cell cycle related genes; conditions: 20 μM, 24 hr
Experimental: Cells were treated, lysed and RNA collected and quantified using the same method outlined above. Cells were dosed independently on 3 separate days (n=3). 1 μg of total RNA was converted to cDNA using ReactionReady™ First Strand cDNA Synthesis kit (SuperArray Bioscience Corp.; Frederick, Md.) following manufacturer's protocol. 50 ng of template cDNA was then used in subsequent real-time PCR (qRT-PCR) reactions. Template was combined with target gene specific or β-actin control RT^2 PCR Primer Sets, RT^2 Real-Time™ SYBR Green/Rox Master Mix (SuperArray Bioscience Corp.), and ddH2O for a final reaction volume of 25 μL and run on a 7900HT Fast Real-Time PCR system (Applied Biosystems; Foster City, Calif.) following manufacturer's protocol. Fold changes were calculated using the ΔΔCt method as recommended by the manufacture's protocol.

PC-3 cells [7] = experiment: Microarray global gene expression (GeneChip Human Genome Focus Array, DAVID ontologies); conditions: 20 μM, 24 hrs
Experimental: To perform the microarray experiments, PC-3 cells were treated with (95% ethanol) or 20 μM of VN/124-1. After 24 hr exposure to the agent, cells were pelleted and lysed using Qiagen RLT (Qiagen Inc.; Valencia, Calif.) buffer containing 1% β-mercaptoethanol. Total RNA was isolated using the Qiagen RNeasy-Mini Kit following manufacturer's protocol. Quantity and purity were assessed by absorption at 260 nm and 280 nm. RNA integrity was assessed using an Agilent Bioanalyzer (Agilent Technologies; Santa Clara, Calif.). Experiments were carried out in duplicate, with triplicate samples (dosed independently on 3 different days) from each experiment pooled for analysis on a single chip.
Samples were hybridized to a GeneChip® Human Genome Focus Array (Affymetrix Inc., U.S.A.) and analyzed using an Affymetrix Genechip Scanner 3000 according to manufacturer's protocol. Gene ontologies were identified using the online Database for Annotation, Visualization, and integrated Discovery (DAVID) provided by the National Institute of Allergy and Infectious Diseases and the National Institute of Health. […] Stringent criteria of a minimum EASE/P-Value threshold of 0.001 and a gene count threshold of 5 were used to identify altered gene ontologies.

[8] = tested on: eIF2α, p-eIF2α, cyclin D1, gp78/BiP, CHOP; experiment: Western blot of ERSR related proteins; conditions: 20 μM
Experimental: Cells were treated with VN/124-1, thapsigargin or vehicle for 6 and 24 hrs. Protein was isolated, subjected to SDS-PAGE, transferred and imaged as is known in the art. Primary antibodies against eIF2α, p-eIF2α, cyclin D1, gp78/BiP, and β-actin were purchased from Cell Signaling (Danvers, Mass.), Anti-CHOP antibody was purchased from Sigma Aldrich (St Louis, Mo.). Quantitation of relative protein expression was determined via densitometry using the software ImageQuant 5.0 (Molecular Dynamics) with each protein normalized to its respective loading control. Results represent the average of at least 3 independent experiments, with representative blots shown.

Which GI90 (DU-145 cells) does the source give for `C[C@]12CCC(=O)C=C1CCC1C2CC[C@]2(C)C(n3cnc4ccccc43)=CCC12` (stereo partly shown) [VN/125-1] here?
The GI90 was 15.53 µM.

And the GI90 (LNCaP cells)?
Its GI90 is 13.46 µM.

And the GI90 (PC-3 cells [1])?
Its GI90 is 8.07 µM.

Which results are given for `C[C@]12CC[C@H](O)CC1=CC[C@@H]1[C@@H]2CC[C@]2(C)C(c3cccnc3)=CC[C@@H]12` [Abiraterone, 17-(3-pyridyl)androsta-5,16-dien-3β-ol, reference compound]?
GI50 (DU-145 cells): 14.7 µM; GI50 (LNCaP cells): 1.41 µM; GI50 (PC-3 cells [1]): 9.32 µM

Which GI90 (DU-145 cells) does the source give for `C[C@]12CC[C@H](O)CC1=CCC1C2CC[C@]2(C)C(n3ccnc3)=CCC12` (stereo partly shown) [VN/85-1] here?
The GI90 was 31.62 µM.

What about the GI50 (DU-145 cells) of the same compound?
The GI50 was 5.31 µM.

And the GI90 (LNCaP cells)?
The GI90 was 36.49 µM.

What about the GI50 (LNCaP cells) of the same compound?
Its GI50 is 2.47 µM.

And the GI50 (PC-3 cells [1])?
Its GI50 is 1.86 µM.

And the GI90 (PC-3 cells [1])?
The GI90 was 30.41 µM.

For `C[C@]12CC[C@H](O)CC1=CC[C@@H]1[C@@H]2CC[C@]2(C)C(n3cnc4ccccc43)=CC[C@@H]12` [VN/124-1], which “transient rise in [Ca2+]i, mean peak ΔF/F0” value (PC-3 cells [2]; extracellular calcium removed) is on record?
Its value is 0.967.

And the “transient rise in [Ca2+]i, mean peak ΔF/F0” value (PC-3 cells [2]; presence of extracellular calcium)?
The value was 0.613.

What about the “transient rise in [Ca2+]i after depletion of ER calcium stores” value (PC-3 cells [2]; pretreatment with SERCA inhibitor cyclopiazonic acid (CPA)) of the same compound?
The value was “completely abolished”.

What about the “absolute [Ca2+]i, mean” value (PC-3 cells [3]) of the same compound?
The value was “about 66.21 nM”.

What about the GI90 (DU-145 cells) of the same compound?
The GI90 was 15.95 µM.

And the GI50 (DU-145 cells)?
The GI50 was 7.55 µM.

And the GI90 (LNCaP cells)?
The GI90 was 31.99 µM.

What about the GI50 (LNCaP cells) of the same compound?
The GI50 was 3.15 µM.

And the GI50 (PC-3 cells [1])?
Its GI50 is 7.82 µM.

What about the GI90 (PC-3 cells [1]) of the same compound?
Its GI90 is 18.62 µM.

And the “amount of cells in G1/G0” value (PC-3 cells [4]; 18 and 24 hrs, synchronized cells)?
The value was “significant increase”.

What about the “exit from G1 phase of the cell cycle” value (PC-3 cells [4]; cells synchronized by serum starvation) of the same compound?
The value was “prevented the exit from G1 phase”.

And the “Combination index (CI)” value (PC-3 cells [5]; 5 μM VN/124-1 plus 10 nM thapsigargin)?
Its value is 0.40.

And the “Combination index (CI)” value (PC-3 cells [5]; 10 μM VN/124-1 plus 10 nM thapsigargin)?
The value was 0.58.

What about the “Combination index (CI)” value (PC-3 cells [5]; 20 μM VN/124-1 plus 10 nM thapsigargin) of the same compound?
The value was 0.77.

What about the “activating transcription factor 4 (ATF4) gene expression” value (PC-3 cells [6]; microarray verified by qRT-PCR) of the same compound?
Its value is “up-regulated”.

And the “asparagines synthetase (ASKS) gene expression” value (PC-3 cells [6]; microarray verified by qRT-PCR)?
Its value is “up-regulated”.

And the CHOP gene expression (PC-3 cells [6]; qRT-PCR)?
Its CHOP gene expression is “strongly up-regulated”.

What about the “cyclin D1 mRNA levels” value (PC-3 cells [6]; qRT-PCR) of the same compound?
Its value is “not affected”.

What about the “cyclin E2 mRNA levels” value (PC-3 cells [6]; qRT-PCR) of the same compound?
Its value is “significantly reduced”.

What about the “S100P calcium binding protein gene expression” value (PC-3 cells [7]) of the same compound?
Its value is “most highly up-regulated”.

And the CHOP protein level [8]?
The CHOP protein level was “up-regulation”.

And the “expression of gp78/BiP protein” value [8]?
The value was “significantly induced”.

And the “phosphorylation of eIF2α” value ([8]; 6 and 24 hrs)?
Its value is “induced the phosphorylation”.

And the “cyclin D1 protein” value ([8]; 24 hrs)?
The value was “down-regulation”.

For `C[C@]12CC[C@H](O)CC1=CCC1C2CC[C@]2(C)C(n3cncn3)=CCC12` (stereo partly shown) [VN/63-1], which GI90 (DU-145 cells) is on record?
The GI90 was >100 µM.

What about the GI50 (DU-145 cells) of the same compound?
Its GI50 is 11 µM.

And the GI90 (LNCaP cells)?
The GI90 was >100 µM.

And the GI50 (LNCaP cells)?
Its GI50 is 1.05 µM.

What about the GI50 (PC-3 cells [1]) of the same compound?
Its GI50 is 2.91 µM.

What about the GI90 (PC-3 cells [1]) of the same compound?
The GI90 was >100 µM.
